Activity calls are given as the source filed them. The calls are words filed in the database; no cut-off is given here.
Columns and labels:
Klebsiella pneumoniae [1] = assay: Hormesis activity against Klebsiella pneumonia assessed as promotion of bacterial growth by measuring prolonged logarithmic growth phase at 3 to 6 ug/ml measured from 840 to 1440 mins by OD600 based analysis; format: organism-based; conditions: in vivo, dose lower 3 µg/ml, time lower 840 min, dose upper 6 µg/ml, time upper 1440 min
[2] = Upregulation of KmrA promoter activity in Klebsiella pneumoniae assessed as increase in beta-galactosidase activity at 6 to 50 ug/ml by LacZ based OD600 analysis; format: ADME; conditions: dose 6-50 µg/ml
Klebsiella pneumoniae [3] = assay: Hormesis activity against Klebsiella pneumonia assessed as promotion of bacterial growth by measuring prolonged logarithmic growth phase at 3 to 6 ug/ml measured for 24 hrs in presence of 1 ug/ml tetracycline by OD600 based analysis; format: organism-based; conditions: in vivo, dose 3-6 µg/ml
Klebsiella pneumoniae [4] = assay: Hormesis activity against Klebsiella pneumonia assessed as promotion of bacterial growth by measuring increase in final OD600 at 3 ug/ml measured for 24 hrs in presence of 2 ug/ml tetracycline by OD600 based analysis; format: organism-based; conditions: in vivo, at 3 µg/mL
Klebsiella pneumoniae [5] = assay: Hormesis activity against Klebsiella pneumonia assessed as inhibition of bacterial growth at 25 to 50 ug/ml measured for 24 hrs in presence of 2 ug/ml tetracycline by OD600 based analysis; format: functional, organism-based; conditions: dose 25-50 µg/ml
Klebsiella pneumoniae [6] = assay: Hormesis activity against Klebsiella pneumoniae assessed as promotion of bacterial growth at 3 to 6 ug/ml measured for 24 hrs in presence of efflux pump inhibitor, CCCP and 1 to 2 ug/ml tetracycline by OD600 based analysis; format: ADME, organism-based; conditions: in vivo, dose 3-6 µg/ml
Enterobacter cloacae [7] = assay: Hormesis activity against Enterobacter cloacae assessed as promotion of bacterial growth by measuring prolonged logarithmic growth phase at 3 to 6 ug/ml measured for 24 hrs by OD600 based analysis; format: organism-based; conditions: in vivo, dose 3-6 µg/ml
Acinetobacter baumannii [8] = assay: Hormesis activity against Acinetobacter baumannii assessed as promotion of bacterial growth by measuring prolonged logarithmic growth phase at 3 to 50 ug/ml measured for 24 hrs by OD600 based analysis; format: organism-based; conditions: in vivo, dose 3-50 µg/ml
Acinetobacter baumannii [9] = assay: Hormesis activity against Acinetobacter baumannii assessed as promotion of bacterial growth at 3 to 50 ug/ml measured for 24 hrs in presence of 80 to 120 ug/ml tetracycline by OD600 based analysis; format: organism-based; conditions: in vivo, dose 3-50 µg/ml
Klebsiella pneumoniae [10] = assay: Hormesis activity against Klebsiella pneumoniae assessed as increase in antibiotic MIC by measuring rifampicin MIC at 3 ug/ml incubated for 12 hrs by OD600 based analysis (reference value: 25 ug/ml); format: ADME, organism-based; conditions: in vivo, dose 3 µg/ml
Klebsiella pneumoniae [11] = assay: Hormesis activity against Klebsiella pneumoniae assessed as increase in antibiotic MIC by measuring atreonamMIC at 3 ug/ml incubated for 12 hrs by OD600 based analysis (reference value: 1.5625 ug/ml); format: ADME, organism-based; conditions: in vivo, dose 3 µg/ml
Klebsiella pneumoniae [12] = assay: Hormesis activity against overnight compound-treated Klebsiella pneumoniae assessed as increase in antibiotic MIC by measuring atreonamMIC at 3 ug/ml incubated for 12 hrs by OD600 based analysis (reference value: 1.5625 ug/ml); format: ADME, organism-based; conditions: in vivo, dose 3 µg/ml
Klebsiella pneumoniae [13] = assay: Hormesis activity against Klebsiella pneumoniae deficient in KmrA gene expression assessed as increase in antibiotic MIC by measuring azithromycin MIC at 3 ug/ml incubated for 12 hrs by OD600 based analysis (reference value: 0.78125 ug/ml); format: ADME, organism-based; conditions: in vivo, dose 3 µg/ml
Klebsiella pneumoniae [14] = assay: Hormesis activity against Klebsiella pneumoniae deficient in KmrA gene expression assessed as increase in antibiotic MIC by measuring ampicillin MIC at 3 ug/ml incubated for 12 hrs by OD600 based analysis (reference value: 12.5 ug/ml); format: ADME, organism-based; conditions: in vivo, dose 3 µg/ml
Klebsiella pneumoniae [15] = assay: Hormesis activity against overnight compound-treated Klebsiella pneumoniae deficient in KmrA gene expression assessed as increase in antibiotic MIC by measuring streptomycin MIC at 3 ug/ml incubated for 12 hrs by OD600 based analysis (reference value: 0.78125 ug/ml); format: ADME, organism-based; conditions: in vivo, dose 3 µg/ml
Klebsiella pneumoniae [16] = assay: Hormesis activity against overnight compound-treated Klebsiella pneumoniae deficient in KmrA gene expression assessed as increase in antibiotic MIC by measuring chloramphenicol MIC at 3 ug/ml incubated for 12 hrs by OD600 based analysis (reference value: 6.25 ug/ml); format: ADME, organism-based; conditions: in vivo, dose 3 µg/ml
Klebsiella pneumoniae [17] = assay: Hormesis activity against overnight compound-treated Klebsiella pneumoniae deficient in KmrA gene expression assessed as increase in antibiotic MIC by measuring ampicillin MIC at 3 ug/ml incubated for 12 hrs by OD600 based analysis (reference value: 12.5 ug/ml); format: ADME, organism-based; conditions: in vivo, dose 3 µg/ml
Enterobacter cloacae [18] = assay: Hormesis activity against Enterobacter cloacae assessed as increase in antibiotic MIC by measuring ampicillin MIC at 3 ug/ml incubated for 12 hrs by OD600 based analysis (reference value: 25 ug/ml); format: ADME, organism-based; conditions: in vivo, dose 3 µg/ml
Enterobacter cloacae [19] = assay: Hormesis activity against Enterobacter cloacae assessed as increase in antibiotic MIC by measuring meropenem MIC at 3 ug/ml incubated for 12 hrs by OD600 based analysis (reference value: 0.1953 ug/ml); format: ADME, organism-based; conditions: in vivo, dose 3 µg/ml
Enterobacter cloacae [20] = assay: Hormesis activity against Enterobacter cloacae assessed as increase in antibiotic MIC by measuring atreonamMIC at 3 ug/ml incubated for 12 hrs by OD600 based analysis (reference value: 3.125 ug/ml); format: ADME, organism-based; conditions: in vivo, dose 3 µg/ml
Enterobacter cloacae [21] = assay: Hormesis activity against overnight compound-treated Enterobacter cloacae assessed as increase in antibiotic MIC by measuring tetracycline MIC at 3 ug/ml incubated for 12 hrs by OD600 based analysis (reference value: 8 ug/ml); format: ADME, organism-based; conditions: in vivo, dose 3 µg/ml
Enterobacter cloacae [22] = assay: Hormesis activity against overnight compound-treated Enterobacter cloacae assessed as increase in antibiotic MIC by measuring azithromycin MIC at 3 ug/ml incubated for 12 hrs by OD600 based analysis (reference value: 6.25 ug/ml); format: ADME, organism-based; conditions: in vivo, dose 3 µg/ml
Enterobacter cloacae [23] = assay: Hormesis activity against overnight compound-treated Enterobacter cloacae assessed as increase in antibiotic MIC by measuring streptomycin MIC at 3 ug/ml incubated for 12 hrs by OD600 based analysis (reference value: 12.5 ug/ml); format: ADME, organism-based; conditions: in vivo, dose 3 µg/ml
Acinetobacter baumannii [24] = assay: Hormesis activity against Acinetobacter baumannii assessed as increase in antibiotic MIC by measuring ampicillin MIC at 3 ug/ml incubated for 12 hrs by OD600 based analysis (reference value: 100 ug/ml); format: ADME, organism-based; conditions: in vivo, dose 3 µg/ml
Acinetobacter baumannii [25] = assay: Hormesis activity against Acinetobacter baumannii assessed as increase in antibiotic MIC by measuring cefotaxime MIC at 3 ug/ml incubated for 12 hrs by OD600 based analysis (reference value: 12.5 ug/ml); format: ADME, organism-based; conditions: in vivo, dose 3 µg/ml
Acinetobacter baumannii [26] = assay: Hormesis activity against Acinetobacter baumannii assessed as increase in antibiotic MIC by measuring atreonamMIC at 3 ug/ml incubated for 12 hrs by OD600 based analysis (reference value: 6.25 ug/ml); format: ADME, organism-based; conditions: in vivo, dose 3 µg/ml
Acinetobacter baumannii [27] = assay: Hormesis activity against overnight-compound treated Acinetobacter baumannii assessed as increase in antibiotic MIC by measuring streptomycin MIC at 3 ug/ml incubated for 12 hrs by OD600 based analysis (reference value: 400 ug/ml); format: ADME, organism-based; conditions: in vivo, dose 3 µg/ml
Acinetobacter baumannii [28] = assay: Hormesis activity against overnight-compound treated Acinetobacter baumannii assessed as increase in antibiotic MIC by measuring meropenem MIC at 3 ug/ml incubated for 12 hrs by OD600 based analysis (reference value: 0.625 ug/ml); format: ADME, organism-based; conditions: in vivo, dose 3 µg/ml

## COc1ccc2cc3[n+](cc2c1OC)CCc1cc2c(cc1-3)OCO2 [BERBERINE]
Klebsiella pneumoniae [1]
  Activity: Toxic
[2]
  Activity: Toxic
Klebsiella pneumoniae [3]
  Activity: Toxic
Klebsiella pneumoniae [4]
  Activity: 23%
Klebsiella pneumoniae [5]
  Activity: Active
Klebsiella pneumoniae [6]
  Activity: Non-Toxic
Enterobacter cloacae [7]
  Activity: Toxic
Acinetobacter baumannii [8]
  Activity: Toxic
Acinetobacter baumannii [9]
  Activity: Toxic
Klebsiella pneumoniae [10]
  MIC: 25 µg/mL
Klebsiella pneumoniae [11]
  MIC: 1.5625 µg/mL
Klebsiella pneumoniae [12]
  MIC: 1.5625 µg/mL
Klebsiella pneumoniae [13]
  MIC: 0.7812 µg/mL
Klebsiella pneumoniae [14]
  MIC: 12.5 µg/mL
Klebsiella pneumoniae [15]
  MIC: 1.5625 µg/mL
Klebsiella pneumoniae [16]
  MIC: 6.25 µg/mL
Klebsiella pneumoniae [17]
  MIC: 12.5 µg/mL
Enterobacter cloacae [18]
  MIC: 25 µg/mL
Enterobacter cloacae [19]
  MIC: 0.1953 µg/mL
Enterobacter cloacae [20]
  MIC: 3.125 µg/mL
Enterobacter cloacae [21]
  MIC: 16 µg/mL
Enterobacter cloacae [22]
  MIC: 6.25 µg/mL
Enterobacter cloacae [23]
  MIC: 25 µg/mL
Acinetobacter baumannii [24]
  MIC: 200 µg/mL
Acinetobacter baumannii [25]
  MIC: 12.5 µg/mL
Acinetobacter baumannii [26]
  MIC: 6.25 µg/mL
Acinetobacter baumannii [27]
  MIC: 400 µg/mL
Acinetobacter baumannii [28]
  MIC: 0.625 µg/mL

From ChEMBL document CHEMBL4831545, “Hormesis Effect of Berberine against Klebsiella pneumoniae Is Mediated by Up-Regulation of the Efflux Pump KmrA” (J Nat Prod, 2021)
